Series [1] relates to Hepatotoxicity.
In series [2] the test system is Hepatotoxicity. The source holds these as a separate data set.
For series [3], the system named is Hepatotoxicity. This is another data set of the same source.
Series [4] relates to Hepatotoxicity. The source holds these as a separate data set.
The subject of series [5] is Hepatotoxicity. This is another data set of the same source.
Series [6] concerns Hepatotoxicity. The source holds these as a separate data set.
For series [7], the system named is Hepatotoxicity. The source holds these as a separate data set.
Series [8] concerns Hepatotoxicity. This is another data set of the same source.
Series [9] has as its system Hepatotoxicity. The source holds these as a separate data set.
The test system of series [10] is Hepatotoxicity. This is another data set of the same source.
For series [11], the system named is Hepatotoxicity. This is another data set of the same source.
In series [12] the test system is Hepatotoxicity. This is another data set of the same source.
Series [13] deals with Hepatotoxicity. The source holds these as a separate data set.
In series [14] the test system is Hepatotoxicity. This is another data set of the same source.
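Throughout, for HepSE Combined Scores: combined hepatic side effect score as listed in the training data of the Drug Induced Liver Injury Prediction System (DILIps).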
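Throughout, for HepSE bilirubinemia: bilirubinemia hepatic side effect score drawn from the DILIps training data, a prediction system for drug-induced liver injury; call rule not given here.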
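Throughout, for HepSE cholecystitis: Cholecystitis-related hepatic side effect score drawn from the DILIps (drug-induced liver injury prediction) training data set; call rule not given here.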
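Throughout, for HepSE cholelithiasis: hepatic side effect score for cholelithiasis, drawn from the DILIps training data for predicting drug-induced liver injury; call rule not given here.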
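Throughout, for HepSE cirrhosis: cirrhosis hepatic side effect score taken from the DILIps (drug-induced liver injury prediction) training set; call rule not given here.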
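Throughout, for HepSE elevated liver function tests: hepatic side effect score for raised liver function tests, as recorded in the DILIps training set used for predicting drug-induced liver injury.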
Throughout, for HepSE hepatic failure: call rule not given here.
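Throughout, for HepSE hepatic necrosis: score of hepatic side effects for hepatic necrosis, drawn from the training data of DILIps, a prediction system for drug-induced liver injury; call rule not given here.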
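Throughout, for HepSE hepatitis: Hepatitis-related hepatic side effect score taken from the training data of DILIps, a prediction system for drug-induced liver injury; call rule not given here.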
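Throughout, for HepSE hepatomegaly: hepatic side effect score for hepatomegaly, taken from the training set of the DILIps drug-induced liver injury prediction system; call rule not given here.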
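Throughout, for HepSE jaundice: Jaundice-related hepatic side-effect score drawn from the training data of the DILIps (drug-induced liver injury prediction system); call rule not given here.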
Throughout, for HepSE liver disease: call rule not given here.
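Throughout, for HepSE liver fatty: hepatic side effect score for fatty liver, taken from the DILIps training set for predicting drug-induced liver injury; call rule not given here.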
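Throughout, for HepSE liver function tests abnormal: hepatic side effect score taken from the DILIps (drug-induced liver injury prediction system) training data, here covering abnormal liver function test findings.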

Molecule `Nc1cc(Cl)c(N=C2NCCN2)c(Cl)c1` [APRACLONIDINE] yielded a HepSE_liver disease in [1] of 0. In [2], this molecule came in with a HepSE_cholecystitis of 0. Moreover, the HepSE_cirrhosis in series [3] came out at 0. Further, the HepSE_jaundice in series [4] came out at 0. Further, the “HepSE_elevated liver function tests” value in [5] is listed as 0. Moreover, in series [6], the HepSE_liver fatty amounted to 0. In [7], this molecule gave a HepSE_hepatic necrosis of 0. Further, the HepSE_hepatomegaly in series [8] was determined as 0. In [9], this molecule displayed a HepSE_bilirubinemia of 0. The HepSE_cholelithiasis in [10] was 0. Moreover, the HepSE_hepatitis in series [11] is on record as 0. In addition, the “HepSE_Combined Scores” value in [12] worked out at 0. This molecule displayed a HepSE_hepatic failure in [13] of 0. In series [14], the “HepSE_liver function tests abnormal” value was 0.

Take `C[C@@H](O[C@H]1OCCN(Cc2n[nH]c(=O)[nH]2)[C@H]1c1ccc(F)cc1)c1cc(C(F)(F)F)cc(C(F)(F)F)c1` [APREPITANT]: in series [1], the HepSE_liver disease is on record as 0. This molecule also came in with a HepSE_cholecystitis in [2] of 0. Besides, the HepSE_cirrhosis in [3] turned out to be 0. The same molecule came in with a HepSE_jaundice in [4] of 0. In addition, the “HepSE_elevated liver function tests” value in [5] was 0. The molecule also came in with a HepSE_liver fatty in series [6] of 0. Besides, the HepSE_hepatic necrosis in series [7] stood at 0. In series [8], the HepSE_hepatomegaly is recorded as 0. Also, the HepSE_bilirubinemia in [9] is 0. The molecule further returned a HepSE_cholelithiasis in series [10] of 0. In addition, in series [11], the HepSE_hepatitis is 0. In addition, in series [12], the “HepSE_Combined Scores” value was 0. In [13], this molecule yielded a HepSE_hepatic failure of 0. In [14], the “HepSE_liver function tests abnormal” value is recorded as 0.

As for `CC1CNc2c(cccc2S(=O)(=O)N[C@@H](CCCNC(=N)N)C(=O)N2CC[C@@H](C)C[C@@H]2C(=O)O)C1` (stereo not given in full) [ARGATROBAN], in series [1], the HepSE_liver disease came to 0. In series [2], this molecule registered a HepSE_cholecystitis of 0. This molecule also had a HepSE_cirrhosis in series [3] of 0. This molecule showed a HepSE_jaundice in series [4] of 0. In addition, in series [5], the “HepSE_elevated liver function tests” value is 0. In series [6], this molecule registered a HepSE_liver fatty of 0. In addition, the HepSE_hepatic necrosis in series [7] worked out at 0. Further, in [8], the HepSE_hepatomegaly is recorded as 0. This molecule also displayed a HepSE_bilirubinemia in series [9] of 0. For the same molecule, the HepSE_cholelithiasis in series [10] is 0. Also, in [11], the HepSE_hepatitis is reported as 0. Moreover, the “HepSE_Combined Scores” value in series [12] is given as 0. In series [13], this molecule had a HepSE_hepatic failure of 0. Besides, in [14], the “HepSE_liver function tests abnormal” value amounted to 0.

Regarding `N=C(N)NCCC[C@H](N)C(=O)O` [ARGININE], the HepSE_liver disease in [1] is on record as 0. This molecule also returned a HepSE_cholecystitis in [2] of 0. The molecule also returned a HepSE_cirrhosis in series [3] of 0. This molecule came in with a HepSE_jaundice in series [4] of 0. Besides, in series [5], the “HepSE_elevated liver function tests” value is 0. In series [6], the HepSE_liver fatty came out at 0. This molecule gave a HepSE_hepatic necrosis in [7] of 0. The same molecule returned a HepSE_hepatomegaly in [8] of 0. In series [9], this molecule registered a HepSE_bilirubinemia of 0. In series [10], this molecule returned a HepSE_cholelithiasis of 0. Also, the HepSE_hepatitis in [11] is 0. In addition, in series [12], the “HepSE_Combined Scores” value was 0. For the same molecule, the HepSE_hepatic failure in series [13] worked out at 0. Besides, the “HepSE_liver function tests abnormal” value in series [14] is given as 0.

Consider `O=C1CCc2ccc(OCCCCN3CCN(c4cccc(Cl)c4Cl)CC3)cc2N1` [ARIPIPRAZOLE], for which the HepSE_liver disease in series [1] came to 0. The same molecule came in with a HepSE_cholecystitis in series [2] of 1. Moreover, the HepSE_cirrhosis in series [3] stood at 0. Further, the HepSE_jaundice in [4] was found to be 1. In addition, the “HepSE_elevated liver function tests” value in series [5] is 0. The molecule also displayed a HepSE_liver fatty in series [6] of 0. Further, the HepSE_hepatic necrosis in [7] is reported as 0. Further, the HepSE_hepatomegaly in series [8] turned out to be 1. Moreover, in series [9], the HepSE_bilirubinemia stood at 1. The same molecule gave a HepSE_cholelithiasis in series [10] of 1. Moreover, the HepSE_hepatitis in [11] was found to be 1. Also, the “HepSE_Combined Scores” value in series [12] was 6. In series [13], this molecule returned a HepSE_hepatic failure of 0. Moreover, the “HepSE_liver function tests abnormal” value in [14] amounted to 0.

Molecule `O=[As][As+](=O)[O-]` (stereo not given) [ARSENIC TRIOXIDE] came in with a HepSE_liver disease in [1] of 0. The HepSE_cholecystitis in series [2] is on record as 0. The HepSE_cirrhosis in series [3] came out at 0. In series [4], this molecule yielded a HepSE_jaundice of 0. In addition, the “HepSE_elevated liver function tests” value in [5] is 0. Further, in [6], the HepSE_liver fatty is reported as 0. This molecule also yielded a HepSE_hepatic necrosis in series [7] of 0. The HepSE_hepatomegaly in series [8] is on record as 0. In series [9], this molecule registered a HepSE_bilirubinemia of 0. The HepSE_cholelithiasis in series [10] turned out to be 0. Also, in series [11], the HepSE_hepatitis stood at 0. Further, the “HepSE_Combined Scores” value in [12] is given as 0. The molecule also registered a HepSE_hepatic failure in series [13] of 0. In addition, in series [14], the “HepSE_liver function tests abnormal” value was 0.

In series [1], `CCCNC(C)C(=O)Nc1c(C)csc1C(=O)OC` (stereo not given) [ARTICAINE] yielded a HepSE_liver disease of 0. In series [2], this molecule returned a HepSE_cholecystitis of 0. Further, the HepSE_cirrhosis in series [3] came out at 0. Also, the HepSE_jaundice in [4] was determined as 0. The “HepSE_elevated liver function tests” value in series [5] worked out at 0. Further, in series [6], the HepSE_liver fatty turned out to be 0. For the same molecule, the HepSE_hepatic necrosis in series [7] is given as 0. In addition, the HepSE_hepatomegaly in [8] was 0. Further, in series [9], the HepSE_bilirubinemia came out at 0. In addition, the HepSE_cholelithiasis in [10] was found to be 0. Also, the HepSE_hepatitis in [11] is recorded as 0. Moreover, in series [12], the “HepSE_Combined Scores” value is recorded as 0. This molecule also yielded a HepSE_hepatic failure in series [13] of 0. For the same molecule, the “HepSE_liver function tests abnormal” value in [14] amounted to 0.

For the molecule `CC(=O)Oc1ccccc1C(=O)O` [ASPIRIN], the HepSE_liver disease in series [1] worked out at 0. Besides, in [2], the HepSE_cholecystitis worked out at 0. The molecule also came in with a HepSE_cirrhosis in series [3] of 0. In addition, the HepSE_jaundice in [4] was found to be 0. Also, in series [5], the “HepSE_elevated liver function tests” value is listed as 0. In series [6], this molecule returned a HepSE_liver fatty of 0. In series [7], the HepSE_hepatic necrosis is 0. The HepSE_hepatomegaly in [8] is given as 0. Moreover, in [9], the HepSE_bilirubinemia was determined as 0. In series [10], the HepSE_cholelithiasis is listed as 0. The HepSE_hepatitis in series [11] worked out at 0. In series [12], the “HepSE_Combined Scores” value is on record as 0. The HepSE_hepatic failure in [13] is 0. In series [14], the “HepSE_liver function tests abnormal” value was determined as 0.

On to `COC(=O)N[C@H](C(=O)N[C@@H](Cc1ccccc1)[C@@H](O)CN(Cc1ccc(-c2ccccn2)cc1)NC(=O)[C@@H](NC(=O)OC)C(C)(C)C)C(C)(C)C` [ATAZANAVIR], for which the HepSE_liver disease in series [1] came out at 0. In series [2], the HepSE_cholecystitis is reported as 1. In addition, the HepSE_cirrhosis in series [3] stood at 0. The HepSE_jaundice in [4] came to 1. Also, in series [5], the “HepSE_elevated liver function tests” value is 0. This molecule had a HepSE_liver fatty in [6] of 1. In addition, in [7], the HepSE_hepatic necrosis amounted to 0. In series [8], this molecule yielded a HepSE_hepatomegaly of 1. The molecule also registered a HepSE_bilirubinemia in series [9] of 1. In series [10], this molecule had a HepSE_cholelithiasis of 1. Further, in series [11], the HepSE_hepatitis was determined as 1. Besides, in series [12], the “HepSE_Combined Scores” value is listed as 7. The HepSE_hepatic failure in series [13] is given as 0. Moreover, in [14], the “HepSE_liver function tests abnormal” value came out at 0.

Consider `CNCC[C@@H](Oc1ccccc1C)c1ccccc1` [ATOMOXETINE], for which the HepSE_liver disease in series [1] was determined as 0. In [2], this molecule yielded a HepSE_cholecystitis of 0. Also, the HepSE_cirrhosis in [3] amounted to 0. The same molecule came in with a HepSE_jaundice in series [4] of 0. Moreover, in series [5], the “HepSE_elevated liver function tests” value is listed as 0. In series [6], the HepSE_liver fatty is reported as 0. Moreover, the HepSE_hepatic necrosis in series [7] is given as 0. In addition, the HepSE_hepatomegaly in [8] is recorded as 0. Further, the HepSE_bilirubinemia in series [9] worked out at 0. In addition, the HepSE_cholelithiasis in series [10] is given as 0. In series [11], this molecule had a HepSE_hepatitis of 0. Also, the “HepSE_Combined Scores” value in [12] was found to be 1. The molecule also had a HepSE_hepatic failure in series [13] of 0. In addition, the “HepSE_liver function tests abnormal” value in series [14] is on record as 1.

(Values after ChEMBL document CHEMBL1909294, “Translating clinical findings into knowledge in drug safety evaluation--drug induced liver injury prediction system (DILIps)” (PLoS Comput Biol, 2011).)
